Test results as given in ChEMBL document CHEMBL5543131, “Discovery of Highly Potent Solute Carrier 13 Member 5 (SLC13A5) Inhibitors for the Treatment of Hyperlipidemia” (J Med Chem, 2024).
Calls of active or inactive are those of the source.

Assays:
Hepatocyte = assay: Lipid lowering effect on PCN-induced lipid accumulation in mouse Primary hepatocyte assessed as decrease in ACC1 mRNA expression level at 3 to 30 uM by RT-qPCR analysis; format: functional, cell-based; conditions: dose 3-30 µM
Mus musculus [1] = assay: Lipid lowering activity in starvation-induced hyperlipidemic male C57BL/6J mouse model assessed as decrease in NEFA level in liver at 10 to 30 mg/kg, ip starved for 48 hrs followed by compound administration and measured after 2 hrs; format: functional, organism-based; conditions: dose 10-30 mg/kg
Mus musculus [2] = assay: In vivo inhibition of SLC13A5 in starvation-induced hyperlipidemic male C57BL/6J mouse model assessed as increase in plasma citrate level at 30 mg/kg, ip starved for 48 hrs followed by compound administration and measured after 2 hrs; format: functional, organism-based
Mus musculus [3] = assay: Lipid lowering activity in starvation-induced hyperlipidemic male C57BL/6J mouse model assessed as decrease in triglyceride level in plasma at 10 to 30 mg/kg, ip starved for 48 hrs followed by compound administration and measured after 2 hrs; format: functional, organism-based; conditions: dose 10-30 mg/kg
Mus musculus [4] = assay: Lipid lowering activity in PCN-induced hyperlipidemic male C57BL/6J mouse model assessed as decrease in lipid accumulation in liver at 30 mg/kg, IG preadministered with compound for 15 to 30 mins followed by PCN administration and measured after 7 days by H&E staining based analysis; format: functional, organism-based; conditions: time 15-10110 min
Mus musculus [5] = assay: Lipid lowering activity in PCN-induced hyperlipidemic male C57BL/6J mouse model assessed as decrease in ACC1 mRNA expression level preadministered intragastrically with compound for 15 to 30 mins followed by PCN administration and measured after 7 days by RT-qPCR analysis; format: functional, organism-based; conditions: dose 10-30 mg/kg, route ig, time 15-10110 min
AML12 [6] = assay: Lipid lowering effect on PCN-induced lipid accumulation in mouse AML12 cells assessed as decrease in ACLY mRNA expression level at 3 to 30 uM preincubated with compound for 30 mins followed by PCN addition and measured after 24 hrs by RT-qPCR analysis; format: functional, cell-based; conditions: dose 3-30 µM, time 24.5 hrs
[7] = molecular target: T1, Na(+)/dicarboxylate cotransporter 3 (Homo sapiens) (UniProt Q8WWT9); assay: Inhibition of NaDC3 (unknown origin) citrate transport activity
T1 sequence (whole entry): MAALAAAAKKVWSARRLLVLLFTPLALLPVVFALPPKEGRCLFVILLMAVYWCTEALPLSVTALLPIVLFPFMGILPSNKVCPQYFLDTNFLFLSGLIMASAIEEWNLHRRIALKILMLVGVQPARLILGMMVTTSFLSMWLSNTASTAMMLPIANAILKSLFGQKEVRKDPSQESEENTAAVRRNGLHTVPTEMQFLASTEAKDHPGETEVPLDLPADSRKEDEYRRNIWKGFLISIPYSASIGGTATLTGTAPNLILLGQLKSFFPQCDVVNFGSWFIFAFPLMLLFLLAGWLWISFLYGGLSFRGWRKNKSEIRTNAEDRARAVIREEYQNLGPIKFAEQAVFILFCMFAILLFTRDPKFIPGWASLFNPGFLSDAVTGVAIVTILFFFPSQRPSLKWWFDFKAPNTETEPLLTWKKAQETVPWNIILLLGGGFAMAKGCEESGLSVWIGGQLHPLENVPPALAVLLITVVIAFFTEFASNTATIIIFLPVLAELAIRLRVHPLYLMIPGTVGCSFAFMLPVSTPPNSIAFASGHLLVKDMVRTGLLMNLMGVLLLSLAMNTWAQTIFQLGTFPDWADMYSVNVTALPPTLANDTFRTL

Mus musculus [8] = assay: Lipid lowering activity in PCN-induced hyperlipidemic male C57BL/6J mouse model assessed as decrease in HMGCR mRNA expression level preadministered intragastrically with compound for 15 to 30 mins followed by PCN administration and measured after 7 days by RT-qPCR analysis; format: functional, organism-based; conditions: dose 10-30 mg/kg, route ig, time 15-10110 min
AML12 [9] = assay: Effect on SCL13A5 mRNA expression in oleic acid and palmitic acid induced mouse AML12 cells at 3 to 30 uM by RT-qPCR analysis; format: functional, cell-based; conditions: dose 3-30 µM
[10] = molecular target: Na(+)/citrate cotransporter (Homo sapiens) (UniProt Q86YT5); assay: Potency index, ratio of citrate Km to test compound Km for binding affinity to SLC13A5 (unknown origin)
Chain of Na(+)/citrate cotransporter (Homo sapiens) (Q86YT5 whole entry, looked up): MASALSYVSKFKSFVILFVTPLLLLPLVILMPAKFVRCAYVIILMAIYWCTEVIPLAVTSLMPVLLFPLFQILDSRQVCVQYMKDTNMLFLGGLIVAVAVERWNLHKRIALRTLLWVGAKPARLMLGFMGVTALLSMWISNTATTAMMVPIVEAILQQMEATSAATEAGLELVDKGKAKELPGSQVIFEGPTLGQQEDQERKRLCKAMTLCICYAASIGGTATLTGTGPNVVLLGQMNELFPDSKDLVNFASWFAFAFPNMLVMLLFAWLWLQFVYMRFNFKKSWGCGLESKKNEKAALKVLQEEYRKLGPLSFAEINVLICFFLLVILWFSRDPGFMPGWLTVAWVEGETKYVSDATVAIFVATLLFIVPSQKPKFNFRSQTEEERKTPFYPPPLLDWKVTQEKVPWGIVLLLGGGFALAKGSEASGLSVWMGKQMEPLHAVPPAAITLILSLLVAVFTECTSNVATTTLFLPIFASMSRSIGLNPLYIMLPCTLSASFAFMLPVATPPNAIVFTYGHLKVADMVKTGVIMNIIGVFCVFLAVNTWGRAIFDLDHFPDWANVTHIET

HepG2 [11] = assay: Lipid lowering effect on PCN-induced lipid accumulation in human HepG2 cells assessed as decrease in HMGCR mRNA expression level at 3 to 30 uM by RT-qPCR analysis; format: functional, cell-based; conditions: dose 3-30 µM
Mus musculus [12] = assay: Lipid lowering activity in starvation-induced hyperlipidemic male C57BL/6J mouse model assessed as decrease in size of lipid droplets in liver starved for 48 hrs followed by intraperitoneal administration of compound and measured after 2 hrs by Hematoxylin and eosin staining based analysis; format: functional, organism-based; conditions: dose 10-30 mg/kg, route ip
AML12 [13] = assay: Lipid lowering effect on PCN-induced lipid accumulation in mouse AML12 cells assessed as decrease in FASN mRNA expression level at 3 to 30 uM preincubated with compound for 30 mins followed by PCN addition and measured after 24 hrs by RT-qPCR analysis; format: functional, cell-based; conditions: dose 3-30 µM, time 24.5 hrs
HepG2 [14] = assay: Lipid lowering effect on oleic and palmitic acid induced lipid accumulation in human HepG2 cells assessed as decrease in intracellular total cholesterol level; format: functional, cell-based; conditions: dose 3-30 µM
Mus musculus [15] = assay: Lipid lowering activity in PCN-induced hyperlipidemic male C57BL/6J mouse model assessed as decrease in FASN mRNA expression level preadministered intragastrically with compound for 15 to 30 mins followed by PCN administration and measured after 7 days by RT-qPCR analysis; format: functional, organism-based; conditions: dose 10-30 mg/kg, route ig, time 15-10110 min
HepG2 [16] = assay: Lipid lowering effect on PCN-induced lipid accumulation in human HepG2 cells assessed as decrease in FASN mRNA expression level at 3 to 30 uM by RT-qPCR analysis; format: functional, cell-based; conditions: dose 3-30 µM
AML12 [17] = assay: Downregulation of ACLY mRNA expression in oleic and palmitic acid induced mouse AML12 cells by RT-qPCR analysis; format: functional, cell-based; conditions: dose 3-30 µM
HepG2 [18] = assay: Lipid lowering effect on PCN-induced lipid accumulation in human HepG2 cells assessed as decrease in intracellular triglyceride level; format: functional, cell-based; conditions: dose 3-30 µM
[19] = molecular target: Na(+)/citrate cotransporter (Homo sapiens) (UniProt Q86YT5); assay: Competitive inhibition of SLC13A5 (unknown origin) assessed as increase in Km with constant Vmax upto 50 uM
AML12 [20] = assay: Lipid lowering effect on PCN-induced lipid accumulation in mouse AML12 cells assessed as decrease in triglyceride level preincubated with compound for 30 mins followed by PCN addition and measured after 24 hrs; format: functional, cell-based; conditions: dose 3-30 µM, time 24.5 hrs
Mus musculus [21] = assay: Lipid lowering activity in starvation-induced hyperlipidemic male C57BL/6J mouse model assessed as downregulation of FASN gene expression level starved for 48 hrs followed by oral administration of compound and measured after 2 hrs by RT-qPCR analysis; format: functional, organism-based; conditions: dose 10-30 mg/kg
Mus musculus [22] = assay: Lipid lowering activity in starvation-induced hyperlipidemic male C57BL/6J mouse model assessed as decrease in NEFA level in plasma at 10 to 30 mg/kg, ip starved for 48 hrs followed by compound administration and measured after 2 hrs; format: functional, organism-based; conditions: dose 10-30 mg/kg
Mus musculus [23] = assay: Lipid lowering activity in PCN-induced hyperlipidemic male C57BL/6J mouse model assessed as decrease in liver total cholesterol level at 10 to 30 mg/kg, IG preadministered with compound for 15 to 30 mins followed by PCN administration and measured after 7 days; format: functional, organism-based; conditions: dose 10-30 mg/kg, time 15-10110 min

O=C(O)CC(O)(CCc1ccc(-c2ccccc2)cc1)C(=O)O (centres undefined)
2: Ratio [10]
active: Activity (Hepatocyte) | Activity (Mus musculus [1]) | inhibition (Mus musculus [2]) | Activity (Mus musculus [3]) | Activity (Mus musculus [4]) | Activity (Mus musculus [5]) Dose-Dependent Effect | Activity (AML12 [6]) | Activity (Mus musculus [8]) Dose-Dependent Effect | Activity (HepG2 [11]) | Activity (Mus musculus [12]) Dose-Dependent Effect | Activity (AML12 [13]) | Activity (HepG2 [14]) Dose-Dependent Effect | Activity (Mus musculus [15]) Dose-Dependent Effect | Activity (HepG2 [16]) | Activity (AML12 [17]) Dose-Dependent Effect | Activity (HepG2 [18]) Dose-Dependent Effect | inhibition [19] | Activity (AML12 [20]) Dose-Dependent Effect | Activity (Mus musculus [21]) Dose-Dependent Effect | Activity (Mus musculus [22]) | Activity (Mus musculus [23])
inactive: inhibition [7] | Activity (AML12 [9])
